This passage reports IC50 and inhibition in vivo results from patent US12435051B2, “Dual modulator of mGluR5 and 5-HT2A receptor, and use thereof” (Vivozon Inc., priority 2020, dated 2025).

Read-outs that look alike come from different tables or passages of the source. Where only a bound is given, the exact number is not on record here.

Test [1] has as its target T1, human 5-HT2AR (Homo sapiens, UniProt P28223).
T1 construct: expressed in transfected cells; host or cells: HEK293
Kind of test: HTRF-based IP1 accumulation assay (5-HT2AR antagonistic effect). Format: cell-based. The following applies: HEK293 cells overexpressing human 5-HT2AR; serotonin at EC80. A digest of the protocol: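 HEK293 cells stably overexpressing human 5-HT2AR were pre-incubated with compound (top 10 μM, serial dilutions, LiCl buffer) 10 min at room temperature, then stimulated with EC80 serotonin 30 min at 37 °C. IP1 accumulation was read by HTRF; IC50s came from activity normalized to serotonin and IP1 controls.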
Background: In TR-FRET formats the signal depends on donor and acceptor labels being close together.

Test [2] deals with T2, mGluR5 (Homo sapiens, UniProt P41594).
T2 construct: expressed in transfected cells; host or cells: HEK293
Put plainly: Fluorescence-based Ca2+ mobilization assay. Format: cell-based. Conditions: HEK293 cells overexpressing mGluR5; L-glutamate at EC80. In a few lines: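 HEK293 cells stably overexpressing mGluR5, dye-loaded 60 min at 37 °C, then preincubated with compound 30 min at room temperature in the dark. Ca2+ response to L-glutamate at EC80 read on FLIPR for 2 min. Signal normalised to glutamate (100%) and vehicle (0%); IC50 from % inhibition.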
For orientation: Calcium assays in cells follow changes in intracellular calcium, usually with a dye or a luminescent sensor.

The subject of test [3] is physical (tactile) allodynia in spinal nerve ligation model. Put plainly: Analgesic efficacy experiment using animal model (Chung model, spinal nerve ligation). Format: in vivo, Sprague-Dawley rats. The following applies: for inhibition in vivo at 12.5 mg/kg: 12.5 mpk; for inhibition in vivo at 50 mg/kg: 50 mpk; for inhibition in vivo at 25 mg/kg: 25 mpk. As to the method: The Chung model (spinal nerve ligation model) is a representative animal model to study neuropathic pain and is widely accepted as a gold standard for an animal pain model by global pharmaceutical companies around the world.
In this experiment, male Sprague-Dawley rats (100-120 g) purchased from Koatech (Pyeongtaek-si, Gyeonggi-do) were used. Rats were kept in a room maintained at constant temperature and humidity with a 12 hour light-dark cycle. Rats were allowed to eat and drink freely during the experiment.
For the Chung surgery, rats were anesthetized by isoflurane inhalation and the left lumbar nerves L5 and L6 were tightly tied with a suture thread (6-0 silk thread) at the end of the dorsal ganglion and at a front of an entrance to the sciatic nerve according to the article (Kim and Chung (1992), Pain 50(3):355-63). After suturing the incision, the rats were recovered for 2 weeks in the controlled maintenance room to induce physical allodynia in the left hind paw of the rat. To measure physical (tactile) allodynia, the rats were placed in a cage with a wire mesh on the bottom. Stimuli of increasing intensity (using the von Frey filaments in a range of 0.41 to 15.8 g) were placed on the plantar surface on the side of the nerve injury. The stimulus intensity at which the pain response (abrupt lifting, licking or sucking of the foot) was induced was recorded while applying gradual increment of stimuli. As described in the study of Chaplan et al. (1994) (Chaplan et al. (1994) J. Neurosci. Methods 53(1):55-63), the paw withdrawal threshold (PWT) was determined by increasing or decreasing continuous stimulus intensity, and the result was analyzed by applying Dixon's up-down method. Only rats showing no behavior dysfunction (e.g., feet dragging or dropping) were selected and included in the study, and the PWT of the rats used was 3.16 g or less.
After measuring the degree of basic reaction before drug injection, each compound and solvent were injected by oral administration (12.5-100 mg/kg), and the measurement was repeated at regular time intervals (60 and 120 minutes) after the drug was injected.
The experimenter conducted the PWT measurement in a blind condition not knowing which rat was administered with which drug. The control group was administered with gabapentin (65 mg/kg, intraperitoneal administration), and was randomly mixed during the measurement. Statistical analysis was performed on the measured pain response threshold by calculating the reversal rate (% reversal) from pain in Equation 1 below. […] Pain reversal rate (% reversal)=[(PWT after drug administration)−(PWT before drug administration)]*100/[(15 g, Estimated PWT in normal animals)−(PWT before drug administration)] [Equation 1]
The PWT used in this time is a value obtained by multiplying the gram, the unit of “force” measure, by 10,000, and taking the logarithm, which is a method generally used in academia.
Each experiment consisted of the compound group, the solvent group of the compound and the gabapentin (GBP) group as positive control group. As solvent of the compound, 0.5% HPMC (hydroxypropylmethyl cellulose) was used.

Where [4] appears, read: rat, oral, 100 mpk, 1 h, read-out: % reversal (1 h).
[5] abbreviates: rat, oral, 100 mpk, 2 h, read-out: % reversal (2 h).
The mark [6] stands for this setting: rat, oral, 1 h, read-out: % reversal (1 h).
The mark [7] stands for this setting: rat, oral, 2 h, read-out: % reversal (2 h).

T2 sequence (P41594 21-1212): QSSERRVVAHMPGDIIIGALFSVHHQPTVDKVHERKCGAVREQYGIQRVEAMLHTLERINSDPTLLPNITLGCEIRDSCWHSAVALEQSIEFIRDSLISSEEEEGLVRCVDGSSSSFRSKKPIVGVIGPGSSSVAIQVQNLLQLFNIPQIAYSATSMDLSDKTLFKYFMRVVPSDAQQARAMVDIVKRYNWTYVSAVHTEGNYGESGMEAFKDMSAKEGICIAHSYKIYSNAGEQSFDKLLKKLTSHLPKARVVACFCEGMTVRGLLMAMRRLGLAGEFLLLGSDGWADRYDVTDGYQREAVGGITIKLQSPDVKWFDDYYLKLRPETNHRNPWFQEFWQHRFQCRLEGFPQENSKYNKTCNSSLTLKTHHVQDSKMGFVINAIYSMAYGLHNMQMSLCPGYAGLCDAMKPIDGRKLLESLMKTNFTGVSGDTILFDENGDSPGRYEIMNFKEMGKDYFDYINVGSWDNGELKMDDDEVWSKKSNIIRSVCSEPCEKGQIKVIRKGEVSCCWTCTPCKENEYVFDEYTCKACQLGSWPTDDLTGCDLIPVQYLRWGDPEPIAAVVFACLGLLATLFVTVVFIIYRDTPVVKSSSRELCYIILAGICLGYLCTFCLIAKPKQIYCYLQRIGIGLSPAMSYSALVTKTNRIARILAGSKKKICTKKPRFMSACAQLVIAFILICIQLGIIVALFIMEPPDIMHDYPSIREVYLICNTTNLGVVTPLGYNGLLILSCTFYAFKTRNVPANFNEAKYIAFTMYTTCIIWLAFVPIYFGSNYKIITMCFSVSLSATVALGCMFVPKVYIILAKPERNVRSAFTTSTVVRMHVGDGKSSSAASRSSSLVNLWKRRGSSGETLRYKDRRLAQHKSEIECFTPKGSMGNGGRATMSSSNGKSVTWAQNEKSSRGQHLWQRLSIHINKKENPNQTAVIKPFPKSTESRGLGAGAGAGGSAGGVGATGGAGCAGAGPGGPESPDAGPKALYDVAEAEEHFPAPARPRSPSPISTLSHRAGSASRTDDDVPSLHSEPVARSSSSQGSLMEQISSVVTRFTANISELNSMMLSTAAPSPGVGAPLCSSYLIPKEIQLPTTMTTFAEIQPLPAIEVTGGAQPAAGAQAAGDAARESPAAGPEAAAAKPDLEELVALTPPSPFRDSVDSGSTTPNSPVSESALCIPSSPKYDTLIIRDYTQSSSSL
T1 sequence (P28223 whole entry): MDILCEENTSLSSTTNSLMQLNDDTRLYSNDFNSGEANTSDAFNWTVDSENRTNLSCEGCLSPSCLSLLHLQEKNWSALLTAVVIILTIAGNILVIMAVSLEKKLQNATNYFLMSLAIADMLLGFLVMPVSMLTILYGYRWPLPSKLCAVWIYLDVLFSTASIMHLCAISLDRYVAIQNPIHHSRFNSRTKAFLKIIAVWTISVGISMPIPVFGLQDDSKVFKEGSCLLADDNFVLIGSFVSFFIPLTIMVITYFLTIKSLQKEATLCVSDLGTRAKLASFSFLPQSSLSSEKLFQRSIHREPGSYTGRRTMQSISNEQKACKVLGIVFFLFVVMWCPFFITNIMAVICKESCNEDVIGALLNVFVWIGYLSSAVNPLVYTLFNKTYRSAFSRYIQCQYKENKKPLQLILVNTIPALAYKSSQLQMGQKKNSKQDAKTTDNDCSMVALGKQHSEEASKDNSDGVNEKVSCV

Usually IC50 stands for the midpoint of a concentration-inhibition curve. A high value points to weaker potency in that assay. For `O=C(NCC1(NC2CC2)CCCCCC1)c1ccc(C#Cc2ccccn2)cc1` [Example 1, N-((1-(cyclopropylamino)cycloheptyl)methyl)-4-(pyridin-2-ylethynyl)benzamide], the 50% inhibitory concentration (IC50) was in the range of 100 to 500 nM in test [1] and 1000 to 2000 nM in test [2]. Besides, the inhibition in vivo at 100 mg/kg in test [3] (setting [4]) was 60.5%; in test [3] (setting [5]), 85.7%.

On to `O=C(NCC1(NC2CC2)CCCC1)c1ccc(C#Cc2ccncc2)cc1` [Example 2, N-((1-(cyclopropylamino)cyclopentyl)methyl)-4-(pyridin-4-ylethynyl)benzamide], for which the IC50 in test [1] is below 100 nM; in test [2] it was 500 to 1000 nM. Besides, the inhibition in vivo at 12.5 mg/kg is 3.91% in test [3] (setting [6]) and 28.1% in test [3] (setting [7]).

On to `O=C(NCC1(NC2CC2)CCCC1)c1ccc(C#Cc2ccc(F)cn2)cc1` [Example 3, N-((1-(cyclopropylamino)cyclopentyl)methyl)-4-((5-fluoropyridin-2-yl)ethynyl)benzamide], for which the IC50 in test [1] was in the range of 100 to 500 nM; in test [2], 500 to 1000 nM. For the same compound, the inhibition in vivo at 50 mg/kg turned out to be 59% in test [3] (setting [6]) and 87.9% in test [3] (setting [7]).

Consider `O=C(NCC1(NC2CC2)CCC1)c1ccc(C#Cc2ccncc2)cc1` [Example 5, N-((1-(cyclopropylamino)cyclobutyl)methyl)-4-(pyridin-4-ylethynyl)benzamide], for which the IC50 in test [1] and in test [2] was 100 to 500 nM in each case. Further, the inhibition in vivo at 50 mg/kg in test [3] (setting [6]) came to 43.1%; in test [3] (setting [7]) it was 34.4%.

In the case of `O=C(NCC1(NC2CC2)CCC1)c1ccc(C#Cc2ccccc2F)cc1` [Example 9, N-((1-(cyclopropylamino)cyclobutyl)methyl)-4-((2-fluorophenyl)ethynyl)benzamide], the IC50 in test [1] is below 100 nM; in test [2] it was 100 to 500 nM. For the same compound, the values for the inhibition in vivo at 100 mg/kg in test [3] (setting [4]) and in test [3] (setting [5]) were 64% and 59.6%, respectively.

Regarding `O=C(NCC1(NC2CC2)CCC1)c1ccc(C#Cc2ccncc2)cc1F` [Example 10, N-((1-(cyclopropylamino)cyclobutyl)methyl)-2-fluoro-4-(pyridin-4-ylethynyl)benzamide], the IC50 in test [1] and in test [2] was 100 to 500 nM each time. Also, the results for the inhibition in vivo at 50 mg/kg in test [3] (setting [6]) and in test [3] (setting [7]) were 44.9% and 36.1%, respectively.

For `O=C(NCC1(NC2CC2)CCCC1)c1ccc(C#Cc2ccccc2F)cc1` [Example 11, N-((1-(cyclopropylamino)cyclopentyl)methyl)-4-((2-fluorophenyl)ethynyl)benzamide], the IC50 in test [1] is below 100 nM; in test [2], 100 to 500 nM. Further, the inhibition in vivo at 100 mg/kg in test [3] (setting [4]) was determined as 58.7%; in test [3] (setting [5]), 57.4%.

Take `O=C(NCC1(NC2CC2)CCCCCC1)c1ccc(C#Cc2ccccc2F)cc1` [Example 12, N-((1-(cyclopropylamino)cycloheptyl)methyl)-4-((2-fluorophenyl)ethynyl)benzamide]: the IC50 in test [1] and in test [2] was 100 to 500 nM each time. In addition, the results for the inhibition in vivo at 100 mg/kg in test [3] (setting [4]) and in test [3] (setting [5]) were 53.8% and 74.8%, respectively.

Turning to `O=C(NCC1(NC2CC2)CCCCCC1)c1ccc(C#Cc2ccncc2F)cc1` [Example 16, N-((1-(cyclopropylamino)cycloheptyl)methyl)-4-((3-fluoropyridin-4-yl)ethynyl)benzamide], the figures for the concentration for half-maximal inhibition (IC50) in test [1] and in test [2] were 100 to 500 nM and 500 to 1000 nM, respectively. The inhibition in vivo at 50 mg/kg in test [3] (setting [6]) was 61%; in test [3] (setting [7]) it was 95.8%.

`O=C(NCC1(NC2CC2)CCCCC1)c1ccc(C#Cc2ccccc2F)cc1` [Example 20, N-((1-(cyclopropylamino)cyclohexyl)methyl)-4-((2-fluorophenyl)ethynyl)benzamide]: the IC50 is below 100 nM in test [1] and 500 to 1000 nM in test [2]. The results for the inhibition in vivo at 100 mg/kg in test [3] (setting [4]) and in test [3] (setting [5]) were 35% and 67%, respectively.

On to `O=C(NCC1(NC2CC2)CCOCC1)c1ccc(C#Cc2ccccc2F)cc1` [Example 22, N-((4-(cyclopropylamino)tetrahydro-2H-pyran-4-yl)methyl)-4-((2-fluorophenyl)ethynyl)benzamide], for which the results for the IC50 in test [1] and in test [2] were below 100 nM and 100 to 500 nM, respectively. The inhibition in vivo at 50 mg/kg in test [3] (setting [6]) was found to be 19.3%; in test [3] (setting [7]), 77.5%.

For `CC(C)NC1(CNC(=O)c2ccc(C#Cc3ccccc3F)cc2)CCCCC1` [Example 25, 4-((2-fluorophenyl)ethynyl)-N-((1-(isopropylamino)cyclohexyl)methyl)benzamide], the IC50 in test [1] is below 100 nM; in test [2], 100 to 500 nM. In addition, the inhibition in vivo at 25 mg/kg in test [3] (setting [6]) was 36.5%; in test [3] (setting [7]) it was 36.6%.

In the case of `O=C(NCC1CCOCC1)c1ccc(C#Cc2ccccc2F)cc1` [Example 27, 4-((2-fluorophenyl)ethynyl)-N-((tetrahydro-2H-pyran-4-yl)methyl)benzamide], the IC50 is 100 to 500 nM in test [1] and below 100 nM in test [2]. In addition, the inhibition in vivo at 50 mg/kg in test [3] (setting [6]) was 70.3%; in test [3] (setting [7]), 66.3%.

Consider `O=C(NCC1(CO)CCCCC1)c1ccc(C#Cc2ccccc2F)cc1` [Example 37, 4-((2-fluorophenyl)ethynyl)-N-((1-(hydroxymethyl)cyclohexyl)methyl)benzamide], for which the values for the IC50 in test [1] and in test [2] were 100 to 500 nM and below 100 nM, respectively. Also, the inhibition in vivo at 100 mg/kg in test [3] (setting [4]) came to 37.1%; in test [3] (setting [5]), 18.8%.

Take `O=C(NCC1CCC(F)(F)CC1)c1ccc(C#Cc2ccccc2F)cc1` [Example 39, N-((4,4-difluorocyclohexyl)methyl)-4-((2-fluorophenyl)ethynyl)benzamide]: the IC50 in test [1] and in test [2] was below 100 nM in each case. For the same compound, the inhibition in vivo at 100 mg/kg in test [3] (Rattus norvegicus, po, 1 h, read-out: % reversal (1 h)) was 25.4%; in test [3] (Rattus norvegicus, po, 2 h, read-out: % reversal (2 h)) it was 33.5%.

Regarding `O=C(NCC1CCCOC1)c1ccc(C#Cc2ccccc2F)cc1` (stereo not drawn) [Example 40, 4-((2-fluorophenyl)ethynyl)-N-((tetrahydro-2H-pyran-3-yl)methyl)benzamide], the IC50 is 100 to 500 nM in test [1] and below 100 nM in test [2]. The inhibition in vivo at 50 mg/kg in test [3] (setting [6]) was determined as 103%; in test [3] (setting [7]), 111%.

Consider `CC(NC(=O)c1ccc(C#Cc2ccccc2F)cc1)C1CCOCC1` (stereo not drawn) [Example 42, 4-((2-fluorophenyl)ethynyl)-N-(1-(tetrahydro-2H-pyran-4-yl)ethyl)benzamide], for which the IC50 is 100 to 500 nM in test [1] and below 100 nM in test [2]. The figures for the inhibition in vivo at 100 mg/kg in test [3] (setting [4]) and in test [3] (setting [5]) were 82.9% and 88.1%, respectively.

As to `O=C(NCC1(F)COC1)c1ccc(C#Cc2ccc(F)cc2F)cc1` [Example 123, 4-((2,4-difluorophenyl)ethynyl)-N-((3-fluorooxetan-3-yl)methyl)benzamide], the IC50 in test [1] is below 100 nM; in test [2], 500 to 1000 nM.

For the compound `O=C(NC[C@@H]1CCCOC1)c1ccc(C#Cc2ccc(F)cc2F)cc1` [Example 124, (S)-4-((2,4-difluorophenyl)ethynyl)-N-((tetrahydro-2H-pyran-3-yl)methyl)benzamide], the IC50 in test [1] and in test [2] was 100 to 500 nM in each case.
